The values below come from CN117003659A, “一种可离子化脂质或其药学上可接受的盐、组合物和应用” (priority 2023, dated 2023).

The subject of experiment [1] is female BALB/C mice (雌性BALB/C小鼠). Kind of experiment: In vivo expression of Fluc mRNA-LNP, live fluorescence imaging (Example 7). More on the design: species or system mouse. The settings on record: for fluorescence intensity of expressed protein compared with U-102, U-104, U-106, U-108, U-110, U-112 (in words): mRNA-LNP, versus U-102, U-104, U-106, U-108, U-110, U-112; for fluorescence intensity (total luminous flux) / course of fluorescence intensity at 24 h (in words): mice, 20 μg Fluc mRNA, intramuscular; for fluorescence intensity (total luminous flux): 6 h, order of magnitude.

Experiment [2] concerns HEK293T cells (HEK293T细胞). The format is cell-based. The settings on record: RBD mRNA-LNP, mRNA 1 μg, 24 h, cell supernatant.
Experiment [3] deals with human umbilical vein endothelial cells (人脐静脉内皮细胞, HUVEC). Kind of experiment: In vitro expression of VEGFa mRNA-LNP, ELISA of VEGFa protein (Example 6). The format is cell-based. The settings on record: mRNA 1 μg, 24 h.

Regarding `CCCCCCCCC(CCCCCC)COC(=O)CCCCCN(CCCCCC(=O)OCC(CCCCCC)CCCCCCCC)CCCN(CCO)CCO` (stereo not shown) [U-101, 双(2-己基癸基)-6,6'-((3-(双(2-羟乙基)氨基)丙基)氮杂二烷基)二己酸酯], in experiment [1], the “fluorescence intensity of expressed protein compared with U-102, U-104, U-106, U-108, U-110, U-112 (in words)” value is on record as “更高一些”. The compound further had an RBD protein concentration in experiment [2] of 50.6 ng/mL. Further, in experiment [3], the VEGFa protein concentration amounted to 52.8 ng/mL.

Consider `CCCCCCCCCCCCOC(=O)CCCCCN(CCCCCC(=O)OC(CCCCCCCC)CCCCCCCC)CCCN(CCO)CCO` [U-107, O-1-辛基壬基-O’-十二烷基-6,6'-((3-(双(2-羟乙基)氨基)丙基)氮杂二烷基)二己酸酯], for which the “fluorescence intensity of expressed protein compared with U-102, U-104, U-106, U-108, U-110, U-112 (in words)” value in experiment [1] is recorded as “更高一些”. In experiment [2], this compound gave an RBD protein concentration of 47.6 ng/mL. In addition, in experiment [3], the VEGFa protein concentration came out at 47.7 ng/mL.

`CCCCCCCCC(CCCCCC)COC(=O)CCCCCCN(CCCCCCC(=O)OCC(CCCCCC)CCCCCCCC)CCCN(CCO)CCO` (stereo not shown) [UR-302, 双(2-己基癸基)-7,7'-((3-(双(2-羟乙基)氨基)丙基)氮杂二烷基)二庚酸酯] gave an RBD protein concentration in experiment [2] of 4.5 ng/mL. In experiment [3], this compound gave a VEGFa protein concentration of 3.7 ng/mL.

The compound `CCCCCCCCC(CCCCCC)COC(=O)CCCCCCN(CCCCCCC(=O)OCC(CCCCCC)CCCCCCCC)CCN(CCO)CCO` (stereo not shown) [U-102, 双(2-己基癸基)-7,7'-((2-(双(2-羟乙基)氨基)乙基)氮杂二烷基)二庚酸酯] gave an RBD protein concentration in experiment [2] of 49.3 ng/mL. This compound also gave a VEGFa protein concentration in experiment [3] of 48.7 ng/mL.

For `CCCCCCCCC(CCCCCCCC)OC(=O)CCCCCCN(CCCCCCC(=O)OC(CCCCCCCC)CCCCCCCC)CCN(CCO)CCO` [U-106, 双(1-辛基壬基)-7,7'-((2-(双(2-羟乙基)氨基)乙基)氮杂二烷基)二庚酸酯], the RBD protein concentration in experiment [2] was determined as 47.8 ng/mL. In addition, in experiment [3], the VEGFa protein concentration worked out at 45.5 ng/mL.

Compound `CCCCCCCC(CCCCCCC)OC(=O)CCCCCCN(CCCCCCC(=O)OC(CCCCCCC)CCCCCCC)CCN(CCO)CCO` [U-110, 双(1-庚基辛基)-7,7'-((2-(双(2-羟乙基)氨基)乙基)氮杂二烷基)二庚酸酯] displayed an RBD protein concentration in experiment [2] of 41.6 ng/mL. Moreover, the VEGFa protein concentration in experiment [3] is on record as 36.8 ng/mL.

Turning to `CCCCCCCCC(CCCCCC)COC(=O)CCCCCN(CCCCCC(=O)OCC(CCCCCC)CCCCCCCC)CCN(CCO)CCO` (stereo not shown) [UR-301, 双(2-己基癸基)-6,6'-((2-(双(2-羟乙基)氨基)乙基)氮杂二烷基)二己酸酯], the RBD protein concentration in experiment [2] was 6.8 ng/mL. In addition, the VEGFa protein concentration in experiment [3] is listed as 4.8 ng/mL.

As to `CCCCCCCCCCCOC(=O)CCCCCN(CCO)CCCCCCCC(=O)OC(CCCCCCCC)CCCCCCCC` [SM-102, 8-[(2-羟乙基)[6-氧代-6-(十一烷基氧基)己基]氨基]辛酸1-辛基壬基酯, reference compound], in experiment [1], the “fluorescence intensity (total luminous flux)” value is ~10^7 p/s and the “course of fluorescence intensity at 24 h (in words)” value was “开始减弱”. Also, in experiment [2], the RBD protein concentration is 10.2 ng/mL. The VEGFa protein concentration in experiment [3] came out at 11.3 ng/mL.

Consider `CCCCCCCCC(CCCCCC)COC(=O)CCCCN(CCCCC(=O)OCC(CCCCCC)CCCCCCCC)CCCN(CCO)CCO` (stereo not shown) [UR-304, 双(2-己基癸基)-5,5'-((3-(双(2-羟乙基)氨基)丙基)氮杂二烷基)二戊酸酯], for which the RBD protein concentration in experiment [2] turned out to be 5.4 ng/mL. The VEGFa protein concentration in experiment [3] was 4.9 ng/mL.

In experiment [2], `CCCCCCCCCCCCOC(=O)CCCCCCN(CCCCCCC(=O)OCC(CCCCCC)CCCCCCCC)CCN(CCO)CCO` (stereo not shown) [U-104, O-2-己基癸基-O’-十二烷基-6,6'-((2-(双(2-羟乙基)氨基)乙基)氮杂二烷基)二庚酸酯] returned an RBD protein concentration of 48.7 ng/mL. In addition, in experiment [3], the VEGFa protein concentration is 47.9 ng/mL.

With `CCCCCCCCCCCCOC(=O)CCCCCCN(CCCCCCC(=O)OC(CCCCCCCC)CCCCCCCC)CCN(CCO)CCO` [U-108, O-1-辛基壬基-O’-十二烷基-7,7'-((2-(双(2-羟乙基)氨基)乙基)氮杂二烷基)二庚酸酯], the RBD protein concentration in experiment [2] was found to be 45.7 ng/mL. The VEGFa protein concentration in experiment [3] came out at 45.3 ng/mL.

Regarding `CCCCCCCCC(CCCCCCCC)OC(=O)CCCCCN(CCCCCC(=O)OC(CCCCCCCC)CCCCCCCC)CCCN(CCO)CCO` [U-105, 双(1-辛基壬基)-6,6'-((3-(双(2-羟乙基)氨基)丙基)氮杂二烷基)二己酸酯], the “fluorescence intensity of expressed protein compared with U-102, U-104, U-106, U-108, U-110, U-112 (in words)” value in experiment [1] is “更高一些”. The compound further registered an RBD protein concentration in experiment [2] of 48.4 ng/mL. This compound also yielded a VEGFa protein concentration in experiment [3] of 48.3 ng/mL.

Take `CCCCCCCCCCCCOC(=O)CCCCCN(CCCCCC(=O)OC(CCCCCCC)CCCCCCC)CCCN(CCO)CCO` [U-111, O-1-庚基辛基-O’-十二烷基-6,6'-((3-(双(2-羟乙基)氨基)丙基)氮杂二烷基)二己酸酯]: in experiment [1], the “fluorescence intensity of expressed protein compared with U-102, U-104, U-106, U-108, U-110, U-112 (in words)” value is “更高一些”. This compound also gave an RBD protein concentration in experiment [2] of 44.3 ng/mL. This compound displayed a VEGFa protein concentration in experiment [3] of 41.7 ng/mL.

Consider `CCCCCCCCC(CCCCCC)COC(=O)CCCCCCCN(CCCCCCCC(=O)OCC(CCCCCC)CCCCCCCC)CCN(CCO)CCO` (stereo not shown) [UR-303, 双(2-己基癸基)-8,8'-((2-(双(2-羟乙基)氨基)乙基)氮杂二烷基)二辛酸酯], for which, in experiment [2], the RBD protein concentration amounted to 6.4 ng/mL. The compound also returned a VEGFa protein concentration in experiment [3] of 6.2 ng/mL.

Take `CCCCCCCCC(CCCCCC)C(=O)OCCCCCCN(CCCCO)CCCCCCOC(=O)C(CCCCCC)CCCCCCCC` (stereo not shown) [ALC-0315, ((4-羟基丁基)氮杂二基)双(己烷-6,1-二基)双(2-己基癸酸酯), reference compound]: in experiment [1], the “fluorescence intensity (total luminous flux)” value is ~10^7 p/s and the “course of fluorescence intensity at 24 h (in words)” value is “开始减弱”. The compound further had an RBD protein concentration in experiment [2] of 8.5 ng/mL. This compound also returned a VEGFa protein concentration in experiment [3] of 7.9 ng/mL.

`CCCCCCCCCCCCOC(=O)CCCCCN(CCCCCC(=O)OCC(CCCCCC)CCCCCCCC)CCCN(CCO)CCO` (stereo not shown) [U-103, O-2-己基癸基-O’-十二烷基-6,6'-((3-(双(2-羟乙基)氨基)丙基)氮杂二烷基)二己酸酯]: the “fluorescence intensity of expressed protein compared with U-102, U-104, U-106, U-108, U-110, U-112 (in words)” value in experiment [1] is “更高一些”. Further, the RBD protein concentration in experiment [2] is 49.6 ng/mL. The VEGFa protein concentration in experiment [3] stood at 49.6 ng/mL.

For `CCCCCCCCCCCCOC(=O)CCCCCCN(CCCCCCC(=O)OC(CCCCCCC)CCCCCCC)CCN(CCO)CCO` [U-112, O-1-庚基辛基-O’-十二烷基-7,7'-((2-(双(2-羟乙基)氨基)乙基)氮杂二烷基)二庚酸酯], the RBD protein concentration in experiment [2] is on record as 42.8 ng/mL. The VEGFa protein concentration in experiment [3] came to 36.1 ng/mL.

In the case of `CCCCCCCC(CCCCCCC)OC(=O)CCCCCN(CCCCCC(=O)OC(CCCCCCC)CCCCCCC)CCCN(CCO)CCO` [U-109, 双(1-庚基辛基)-6,6'-((3-(双(2-羟乙基)氨基)丙基)氮杂二烷基)二己酸酯], in experiment [1], the “fluorescence intensity of expressed protein compared with U-102, U-104, U-106, U-108, U-110, U-112 (in words)” value was “更高一些”. The compound further came in with an RBD protein concentration in experiment [2] of 43.2 ng/mL. The same compound came in with a VEGFa protein concentration in experiment [3] of 39.2 ng/mL.
